From patent US20250289789A1, “REVERSIBLE LYSINE COVALENT MODIFIERS OF CDK2 AND USES THEREOF” (Terremoto Biosciences, Inc., priority 2023, published 2025)
Where two headings read alike, the source gives them in different places.

What was measured:
Assay type in all cases: cell-based
[1] = biological target: T1, CDK1-NanoLuc fusion with CCNB1 in 293T or 293 cells (Homo sapiens, UniProt P06493); test: NanoBRET Target Engagement (TE) Intracellular Kinase Assay, CDK1/CCNB1; settings: NanoBRET TE intracellular kinase assay, 2-hour incubation, read-out: NanoBRET-CDK1/B1 IC50
T1 construct: host or cells: 293T (ATCC CRL-3216) or 293 (ATCC CRL-1573)
T1 sequence (P06493 whole entry, the tested form may be a part): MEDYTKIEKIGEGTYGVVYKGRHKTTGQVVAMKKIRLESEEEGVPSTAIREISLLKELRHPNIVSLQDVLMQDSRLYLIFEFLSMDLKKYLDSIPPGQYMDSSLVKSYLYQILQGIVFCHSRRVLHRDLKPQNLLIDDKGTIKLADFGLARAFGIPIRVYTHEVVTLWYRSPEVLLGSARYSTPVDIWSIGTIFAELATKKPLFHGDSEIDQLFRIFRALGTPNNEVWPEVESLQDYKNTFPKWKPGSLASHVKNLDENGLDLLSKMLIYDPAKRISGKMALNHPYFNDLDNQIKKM
T1 sequence (P14635 whole entry partner, the tested form may be a part): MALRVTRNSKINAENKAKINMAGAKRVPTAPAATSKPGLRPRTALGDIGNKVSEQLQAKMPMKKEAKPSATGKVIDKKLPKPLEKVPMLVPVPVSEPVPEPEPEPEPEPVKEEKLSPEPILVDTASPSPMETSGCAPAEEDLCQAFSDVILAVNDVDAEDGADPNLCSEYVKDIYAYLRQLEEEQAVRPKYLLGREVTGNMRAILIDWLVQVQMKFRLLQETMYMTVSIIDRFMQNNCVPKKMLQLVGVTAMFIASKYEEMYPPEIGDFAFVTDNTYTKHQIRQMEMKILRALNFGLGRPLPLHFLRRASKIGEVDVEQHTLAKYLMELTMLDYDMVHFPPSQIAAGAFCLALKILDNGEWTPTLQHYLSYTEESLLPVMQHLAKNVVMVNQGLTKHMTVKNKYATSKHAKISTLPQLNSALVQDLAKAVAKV
Procedure: Inhibitory effects of compounds were measured in NanoBRET TE Intracellular Kinase Assay. 293T (ATCC; CRL-3216) or 293 (ATCC; CRL-1573) cell lines were maintained in 90% DMEM and 10% fetal bovine serum at 37° C., 5% CO2, and 95% relative humidity. Cells were trypsinized and resuspended in assay media (99% Opti-MEM I Reduced Serum Medium, no phenol red, and 1% fetal bovine serum). Cells were co-transfected with 1 μg/mL of CDK-NanoLuc Fusion Vector (Promega; NV2701 for CDK1, NV2781 for CDK2, NV2811 for CDK4, NV2841 for CDK6) and 1 μg/mL of the corresponding Cyclin Expression Vector (Promega; NV2601 for CCNB1, NV2641 for CCNE1, NV2621 for CCND1, NV2631 for CCND3) using FuGENE HD Transfection Reagent (Promega; E2311). 40 uL/well of cells with transfection mixture were seeded in 384-well plates at 1.25×10^5 to 2×10^5 cells/mL and incubated for 24 hours at 37° C., 5% CO2, and 95% relative humidity. On the next day, 100 nL of 100 μM NanoBRET Tracer K-10 (Promega; N2640) and 40 nL of 1000× test compounds prepared in DMSO were added to the cells in each well of 384-well plates for a 2-hour incubation at 37° C., 5% CO2, and 95% relative humidity. 20 uL/well of 3× Intracellular TE Nano-Glo Substrate/Inhibitor (Promega; N2162) were added to 384-well plates and incubated for 3 minutes at room temperature. NanoBRET signals (donor emission wavelength at 450 nm, acceptor emission wavelength at 610 nm) were measured using Envision plate reader (PerkinElmer). NanoBRET ratio was calculated by: BRET Ratio=raw signal for acceptor/raw signal for donor. Dose response curve normalized to DMSO control was plotted using four-parameter logistic model for IC50 calculation.

[2] = biological target: T2, CDK2-NanoLuc fusion with CCNE1 in 293T or 293 cells (Homo sapiens, UniProt P24941); test: NanoBRET Target Engagement (TE) Intracellular Kinase Assay, CDK2/CCNE1; settings: NanoBRET TE intracellular kinase assay, 2-hour incubation, read-out: NanoBRET-CDK2/E1 IC50
T2 construct: host or cells: 293T (ATCC CRL-3216) or 293 (ATCC CRL-1573)

[3] = biological target: T3, CDK4-NanoLuc fusion with CCND1 in 293T or 293 cells (Homo sapiens, UniProt P11802); test: NanoBRET Target Engagement (TE) Intracellular Kinase Assay, CDK4/CCND1; settings: NanoBRET TE intracellular kinase assay, 2-hour incubation, read-out: NanoBRET-CDK4/D1 IC50
T3 construct: host or cells: 293T (ATCC CRL-3216) or 293 (ATCC CRL-1573)
T3 sequence (P11802 whole entry, the tested form may be a part): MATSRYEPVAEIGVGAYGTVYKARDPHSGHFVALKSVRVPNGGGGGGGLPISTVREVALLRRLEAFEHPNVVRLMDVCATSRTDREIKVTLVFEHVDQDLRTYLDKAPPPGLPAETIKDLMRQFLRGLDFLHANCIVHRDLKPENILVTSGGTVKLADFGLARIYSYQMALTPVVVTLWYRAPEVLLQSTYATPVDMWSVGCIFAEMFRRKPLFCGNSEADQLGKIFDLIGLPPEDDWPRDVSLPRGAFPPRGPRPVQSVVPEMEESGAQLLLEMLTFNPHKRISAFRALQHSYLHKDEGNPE
T3 sequence (P24385 whole entry partner, the tested form may be a part): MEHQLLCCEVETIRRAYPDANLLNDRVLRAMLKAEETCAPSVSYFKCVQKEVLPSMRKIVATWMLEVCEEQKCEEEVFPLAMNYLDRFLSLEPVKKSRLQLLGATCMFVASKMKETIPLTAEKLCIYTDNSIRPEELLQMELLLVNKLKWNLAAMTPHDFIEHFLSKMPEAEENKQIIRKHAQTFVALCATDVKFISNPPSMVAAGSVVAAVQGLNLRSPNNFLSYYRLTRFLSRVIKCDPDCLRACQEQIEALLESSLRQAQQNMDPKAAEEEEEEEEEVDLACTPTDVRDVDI

[4] = tested on: Phospho-Rb Ser807/811 in OVCAR3 cells; test: OVCAR3 Phospho-Rb Ser807/811 HTRF assay; settings: Homo sapiens, OVCAR3 cells, Phospho-Rb Ser807/811 HTRF, 1 hour incubation, read-out: pRb-OVCAR3 IC50
Procedure: Cells were trypsinized and resuspended in 1 mM hydroxyurea (Sigma; H8627), 90% RPMI and 10% fetal bovine serum. […] Dose response curve normalized to DMSO control was plotted using four-parameter logistic model for IC50 calculation.

## CC(C)NC(=O)O[C@@H]1CC[C@H](c2cc(NC(=O)c3cnn(-c4cccc(O)c4C=O)c3)n[nH]2)C1 [Compound 8, (1R,3S)-3-{5-[1-(2-formyl-3-hydroxyphenyl)pyrazole-4-amido]-2H-pyrazol-3-yl}cyclopentyl N-isopropylcarbamate; trifluoroacetic acid]
[1]
  IC50: 73.5 nM
[2]
  IC50: 24.9 nM
[3]
  IC50: 5460 nM
[4]; OVCAR-3
  IC50: 880 nM

## Cc1cc(C(=O)Nc2cc([C@H]3CC[C@@H](OC(=O)NC(C)C)C3)[nH]n2)cc(C=O)c1O [Compound 15, (1R,3S)-3-(3-(3-formyl-4-hydroxy-5-methylbenzamido)-1H-pyrazol-5-yl)cyclopentyl isopropylcarbamate trifluoroacetic acid]
[1]
  IC50: 25.3 nM
[2]
  IC50: 2.65 nM
[3]
  IC50: 1820 nM
[4]; OVCAR-3, 1 h
  IC50: 112 nM

## CC(C)NC(=O)O[C@@H]1CC[C@H](c2cc(NC(=O)c3cc(Oc4cccc(O)c4C=O)nn3C)n[nH]2)C1 [Compound 19, (1R,3S)-3-{5-[5-(2-formyl-3-hydroxyphenoxy)-2-methylpyrazole-3-amido]-2H-pyrazol-3-yl}cyclopentyl N-isopropylcarbamate]
[1]
  IC50: 78 nM
[2]
  IC50: 16.4 nM
[3]
  IC50: 2420 nM
[4]; OVCAR-3, 1 h
  IC50: 941 nM

## CC(C)NC(=O)O[C@@H]1CC[C@H](c2cc(NC(=O)c3cc(C(=O)Nc4cccc(O)c4C=O)nn3C)n[nH]2)C1 [Compound 20, (1R,3S)-3-(5-{5-[(2-formyl-3-hydroxyphenyl)carbamoyl]-2-methylpyrazole-3-amido}-2H-pyrazol-3-yl)cyclopentyl N-isopropylcarbamate; trifluoroacetic acid]
[1]
  IC50: 147 nM
[2]
  IC50: 10.5 nM
[3]
  IC50: 1210 nM
[4]; OVCAR-3, 1 h
  IC50: 915 nM

## CC(C)NC(=O)O[C@@H]1CC[C@H](c2cc(NC(=O)c3cc(C(=O)Nc4ccccc4C=O)nn3C)n[nH]2)C1 [Compound 21, (1R,3S)-3-(5-{5-[(2-formylphenyl)carbamoyl]-2-methylpyrazole-3-amido}-2H-pyrazol-3-yl)cyclopentyl N-isopropylcarbamate; trifluoroacetic acid]
[1]
  IC50: 290 nM
[2]
  IC50: 5.53 nM
[3]
  IC50: 3900 nM
[4]; OVCAR-3, 1 h
  IC50: 2120 nM

## CC(C)NC(=O)O[C@@H]1CC[C@H](c2cc(Nc3cc(COc4cccc(O)c4C=O)ccn3)n[nH]2)C1 [Compound 24, (1R,3S)-3-(3-((4-((2-formyl-3-hydroxyphenoxy)methyl)pyridin-2-yl)amino)-1H-pyrazol-5-yl)cyclopentyl isopropylcarbamate]
[1]
  IC50: 516 nM
[2]
  IC50: 18.7 nM
[3]
  IC50: 4880 nM
[4]; OVCAR-3, 1 h
  IC50: 3760 nM

## CC(C)NC(=O)O[C@@H]1CC[C@H](c2cc(Nc3cc(OCc4cccc(O)c4C=O)ccn3)n[nH]2)C1 [Compound 25, (1R,3S)-3-[5-({4-[(2-formyl-3-hydroxyphenyl)methoxy]pyridine-2-yl}amino)-2H-pyrazol-3-yl]cyclopentyl N-isopropylcarbamate]
[1]
  IC50: 299 nM
[2]
  IC50: 9.94 nM
[3]
  IC50: 1210 nM
[4]; OVCAR-3, 1 h
  IC50: 1330 nM

## CC(C)NC(=O)O[C@@H]1CC[C@H](c2cc(NC(=O)c3cc(COc4cccc(O)c4C=O)nn3C)n[nH]2)C1 [Compound 27, (1R,3S)-3-{5-[5-(2-formyl-3-hydroxyphenoxymethyl)-2-methylpyrazole-3-amido]-2H-pyrazol-3-yl}cyclopentyl N-isopropylcarbamate]
[1]
  IC50: 17.7 nM
[2]
  IC50: 5.24 nM
[3]
  IC50: 112 nM
[4]; OVCAR-3, 1 h
  IC50: 95.2 nM

## CC(C)NC(=O)O[C@@H]1CC[C@H](c2cc(NC(=O)c3cc(OCc4cccc(O)c4C=O)nn3C)n[nH]2)C1 [Compound 28, (1R,3S)-3-(3-(3-((2-formyl-3-hydroxybenzyl)oxy)-1-methyl-1H-pyrazole-5-carboxamido)-1H-pyrazol-5-yl)cyclopentyl isopropylcarbamate]
[1]
  IC50: 151 nM
[2]
  IC50: 10.4 nM
[3]
  IC50: 1190 nM
[4]; OVCAR-3, 1 h
  IC50: 1820 nM

## CC(C)NC(=O)O[C@@H]1CC[C@H](c2cc(NC(=O)c3cc(C#Cc4cccc(O)c4C=O)nn3C)n[nH]2)C1 [Compound 29, (1R,3S)-3-(5-{5-[2-(2-formyl-3-hydroxyphenyl)ethynyl]-2-methylpyrazole-3-amido}-2H-pyrazol-3-yl)cyclopentyl N-isopropylcarbamate]
[1]
  IC50: 494 nM
[2]
  IC50: 18.6 nM
[3]
  IC50: 1550 nM
[4]; OVCAR-3, 1 h
  IC50: 2150 nM

## CC(C)NC(=O)O[C@@H]1CC[C@H](c2cc(NC(=O)c3cc(CCc4cccc(O)c4C=O)nn3C)n[nH]2)C1 [Compound 30, (1R,3S)-3-(5-{5-[2-(2-formyl-3-hydroxyphenyl)ethyl]-2-methylpyrazole-3-amido}-2H-pyrazol-3-yl)cyclopentyl N-isopropylcarbamate]
[1]
  IC50: 491 nM
[2]
  IC50: 17.8 nM
[3]
  IC50: 3160 nM
[4]; OVCAR-3, 1 h
  IC50: 2740 nM

## CC(C)NC(=O)O[C@@H]1CC[C@H](c2cc(NC(=O)c3cc(-c4ccc(O)c(C=O)c4)nn3C)n[nH]2)C1 [Compound 31, (1R,3S)-3-{5-[5-(3-formyl-4-hydroxyphenyl)-2-methylpyrazole-3-amido]-2H-pyrazol-3-yl}cyclopentyl N-isopropylcarbamate]
[1]
  IC50: 20.4 nM
[2]
  IC50: 5.46 nM
[3]
  IC50: 3070 nM
[4]; OVCAR-3, 1 h
  IC50: 214 nM

## CC(C)NC(=O)O[C@@H]1CC[C@H](c2cc(NC(=O)CCOc3cccc(O)c3C=O)n[nH]2)C1 [Compound 34, (1R,3S)-3-{5-[3-(2-formyl-3-hydroxyphenoxy)propanamido]-2H-pyrazol-3-yl}cyclopentyl N-isopropylcarbamate; trifluoroacetic acid]
[1]
  IC50: 98.9 nM
[2]
  IC50: 5.34 nM
[3]
  IC50: 196 nM
[4]; OVCAR-3, 1 h
  IC50: 552 nM

## CC(C)NC(=O)O[C@@H]1CC[C@H](c2cc(NC(=O)OCCc3cccc(O)c3C=O)n[nH]2)C1 [Compound 35, 2-(2-formyl-3-hydroxyphenyl)ethyl N-{5-[(1S,3R)-3-[(isopropylcarbamoyl)oxy]cyclopentyl]-1H-pyrazol-3-yl}carbamate; trifluoroacetic acid]
[1]
  IC50: 537 nM
[2]
  IC50: 23.9 nM
[3]
  IC50: 3960 nM
[4]; OVCAR-3, 1 h
  IC50: 4130 nM

## CC(C)NC(=O)O[C@@H]1CC[C@H](c2cc(NC(=O)COCc3cccc(O)c3C=O)n[nH]2)C1 [Compound 36, (1R,3S)-3-(5-{2-[(2-formyl-3-hydroxyphenyl)methoxy]acetamido}-2H-pyrazol-3-yl)cyclopentyl N-isopropylcarbamate; trifluoroacetic acid]
[1]
  IC50: 82.2 nM
[2]
  IC50: 8.17 nM
[3]
  IC50: 1910 nM
[4]; OVCAR-3, 1 h
  IC50: 702 nM

## CC(=O)Nc1cc(C(=O)Nc2cc([C@H]3CC[C@@H](OC(=O)NC(C)C)C3)[nH]n2)ccc1C=O [Compound 37, (1R,3S)-3-(3-(3-acetamido-4-formylbenzamido)-1H-pyrazol-5-yl)cyclopentyl isopropylcarbamate]
[1]
  IC50: 176 nM
[2]
  IC50: 15.6 nM
[3]
  IC50: 128 nM
[4]; OVCAR-3, 1 h
  IC50: 344 nM

## CC(=O)Nc1ccc(C(=O)Nc2cc([C@H]3CC[C@@H](OC(=O)NC(C)C)C3)[nH]n2)cc1C=O [Compound 38, (1R,3S)-3-[5-(4-acetamido-3-formylbenzamido)-2H-pyrazol-3-yl]cyclopentyl N-isopropylcarbamate]
[1]
  IC50: 264 nM
[2]
  IC50: 10.6 nM
[3]
  IC50: 576 nM
[4]; OVCAR-3, 1 h
  IC50: 542 nM

## CC(C)NC(=O)O[C@@H]1CC[C@H](c2cc(NC(=O)c3ccc(C=O)c4[nH]ncc34)n[nH]2)C1 [Compound 39, (1R,3S)-3-[5-(7-formyl-1H-indazole-4-amido)-2H-pyrazol-3-yl]cyclopentyl N-isopropylcarbamate]
[1]
  IC50: 351 nM
[2]
  IC50: 24.7 nM
[3]
  IC50: 474 nM
[4]; OVCAR-3, 1 h
  IC50: 1130 nM
